In patent US20050203063A1, “Proteasome pathway inhibitors and related methods” (priority 2003, published 2005):

Legend:
26S proteasomes = molecular target: T1, 26S proteasomes; assay: Deubiquitination of UbSic1 by epoxomicin-treated purified 26S proteasomes; format: biochemical, S. cerevisiae; conditions: titration, epoxomicin-treated proteasomes
T1 construct: IC50, deubiquitination of UbSic1; other: titration, epoxomicin-treated proteasomes; other: 5 μM C92
Method: (§1) FIG. 2. […] (A) Degradation of UbSic1. Purified 26S proteasomes were preincubated in the presence or absence of test compounds. UbSic1 was then added, and degradation assayed as described (6). Py mock refers to the pyridine solvent in which C23 was dissolved which was marginally inhibitory, unlike the 50% DMSO vehicle used for other test compounds. (B) Deubiquitination of UbSic1. […] UbSic1 was then added, and deubiquitination was assayed as described (6). (C) Titration curve with varying concentrations of C92 to determine half-maximal inhibition of deubiquitination. (D) C92 inhibits binding of UbSic1 to 26S proteasomes. Purified 26S proteasomes immobilized on anti-Flag beads were incubated with UbSic1 in the presence or absence of C92 as described (6). Following binding, beads were washed and analyzed by immunoblotting with anti-Sic1 polyclonal serum. (E) Binding of UbSic1 to the polyUb binding proteins Rpn10 and Rad23 is inhibited by C92. Recombinant Gst-Rpn10 and Gst-Rad23 (1 μg each) were immobilized on glutathione sepharose beads and then incubated with UbSic1 in the presence or absence of C92. Following binding, beads were washed and analyzed by immunoblotting. (F) C92 interacts with multiUb chains. Equivalent amounts (5 μg) of purified Gst, Gst-fusion protein or multiUb chains were incubated with C92 or C1 before being loaded on a 5% native polyacryamide gel. Electrophoresis was performed as described (33). (G) C92 and C59 interact specifically with K48-linked Ub on native gels. Ub (16 μM), K48-linked diUb (8 μM), or tetraUb chains (8 μM) were preincubated with a two fold-molar excess (monoUb and diUb), or equivalent amounts (tetraUb) of test compounds before being resolved on native gels as in (G). Tetra K29Ub, K48Ub, and K63Ub refer to tetraubiquitin chains wherein the ubiquitins are linked via K29, K48, or K63.
FIG. 5. […] Assays were performed and evaluated as summarized in the legend to FIG. 2B. The metal chelating reagent phenanthroline is designated as “P”, and “Py” refers to the pyridine solvent that is used as the solvent for C23. (B) Titration curve for C59. (C) Inhibition of binding of ubiquitin conjugates to Gst-Rpn10 by C92 and C59, but not other compounds. The experiment was performed as described for FIG. 2E.
26S proteasomes were purified from S. cerevisiae cells expressing a Flag-tagged proteasomal subunit (PRE1) essentially as described (28).
Reactions were processed as above.

Gst-Rpn10 = molecular target: T2, Gst-Rpn10 (Saccharomyces cerevisiae, UniProt P38886); assay: Binding of UbSic1 to Gst-Rpn10 on glutathione sepharose beads
T2 construct: made in house
T2 sequence (P38886 1-268): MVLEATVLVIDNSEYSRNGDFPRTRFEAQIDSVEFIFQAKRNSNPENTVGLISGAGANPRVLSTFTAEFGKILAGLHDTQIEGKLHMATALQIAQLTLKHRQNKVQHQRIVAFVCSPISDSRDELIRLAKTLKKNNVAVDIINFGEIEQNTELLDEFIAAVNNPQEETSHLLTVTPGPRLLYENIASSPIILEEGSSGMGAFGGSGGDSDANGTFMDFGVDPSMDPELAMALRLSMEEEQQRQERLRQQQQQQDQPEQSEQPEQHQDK
Method: as §1, with “(F) C92 interacts with multiUb chains. Equivalent amounts (5 μg) of purified Gst, Gst-fusion protein or multiUb chains were incubated with C92 or C1 before being loaded on a 5% native polyacryamide gel. Electrophoresis was performed as described (33). (G) C92 and C59 interact specifically with K48-linked Ub on native gels. Ub (16 μM), K48-linked diUb (8 μM), or tetraUb chains (8 μM) were preincubated with a two fold-molar excess (monoUb and diUb), or equivalent amounts (tetraUb) of test compounds before being resolved on native gels as in (G). Tetra K29Ub, K48Ub, and K63Ub refer to tetraubiquitin chains wherein the ubiquitins are linked via K29, K48, or K63.” left out
FIG. 5. […] Assays were performed and evaluated as summarized in the legend to FIG. 2B. […]
(§2) Recombinant Gst-Rpn10 and Gst-Rad23 were immobilized on glutathione sepharose beads. […] Aliquots were analyzed by immunoblotting.

Gst-Rad23 = molecular target: T3, Gst-Rad23 (Saccharomyces cerevisiae, UniProt P32628); assay: Binding of UbSic1 to Gst-Rad23 on glutathione sepharose beads
T3 construct: made in house
T3 sequence (P32628 1-398): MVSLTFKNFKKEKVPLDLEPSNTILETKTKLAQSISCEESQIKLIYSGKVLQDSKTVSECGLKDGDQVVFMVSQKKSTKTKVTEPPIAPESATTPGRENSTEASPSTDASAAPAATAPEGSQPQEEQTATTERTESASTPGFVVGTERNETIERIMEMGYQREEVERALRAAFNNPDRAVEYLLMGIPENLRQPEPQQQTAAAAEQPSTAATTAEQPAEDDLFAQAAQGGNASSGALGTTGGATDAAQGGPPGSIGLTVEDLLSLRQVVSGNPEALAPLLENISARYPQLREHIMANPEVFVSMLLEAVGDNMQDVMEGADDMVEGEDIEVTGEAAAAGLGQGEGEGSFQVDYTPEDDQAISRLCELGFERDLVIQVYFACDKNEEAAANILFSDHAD
Method: as §1, with “Equivalent amounts (5 μg) of purified Gst, Gst-fusion protein or multiUb chains were incubated with C92 or C1 before being loaded on a 5% native polyacryamide gel. Electrophoresis was performed as described (33). (G) C92 and C59 interact specifically with K48-linked Ub on native gels. Ub (16 μM), K48-linked diUb (8 μM), or tetraUb chains (8 μM) were preincubated with a two fold-molar excess (monoUb and diUb), or equivalent amounts (tetraUb) of test compounds before being resolved on native gels as in (G). Tetra K29Ub, K48Ub, and K63Ub refer to tetraubiquitin chains wherein the ubiquitins are linked via K29, K48, or K63.” left out
as §2

[1] = molecular target: T4, K29-linked ubiquitin chains (Homo sapiens, UniProt P0CG47); assay: Native gel mobility shift of ubiquitin chains; format: binding; conditions: tetraUb, equivalent amount of compound
T4 construct: tetraubiquitin chains wherein the ubiquitins are linked via K29, K48, or K63
Method: as §1
(§3) Selective recognition of the multiubiquitin chain by the 26S proteasome constitutes the first step in UbSic1 degradation (9). Applicants therefore assayed the binding of UbSic1 to 26S proteasomes pre-treated with C92. […] Previous work by applicants has shown that multiubiquitin chain receptors Rad23 and Rpn10 serve a redundant role in sustaining UbSic1 degradation in vitro and in vivo (14). In the absence of the ubiquitin-binding activity of Rpn10, UbSic1 is not recruited, deubiquitinated, or degraded by purified 26S proteasomes. Thus, to further establish the mechanism by which C92 inhibited binding of UbSic1 conjugates to the proteasome, applicants tested whether C92 could interfere with binding of UbSic1 to recombinant Rpn10 and Rad23. […] To distinguish whether C92 inhibited proteolysis by binding to proteasome receptor proteins or to the Ub chain on Sic 1, applicants exploited the negative charge of C92 to determine whether compound binding induced a mobility shift of the target proteins on native gels. C92 was pre-incubated with recombinant Rpn10, Rad23, or a mixture of Ub chains containing 2-7 Ub molecules. […] Remarkably, the binding of C92 and C59 to ubiquitin chains was exquisitely linkage specific. Ubiquitin molecules can be linked to each other in vivo through different internal lysines, including K29, K48, and K63(19). The K48-linked chain is the principal targeting signal in proteolysis whereas K63-linked chains are implicated in enzyme regulation; no physiological function for K29-linked chains has yet been discovered (20).

[2] = molecular target: T5, K48-linked ubiquitin chains (Homo sapiens, UniProt P0CG47); assay: Native gel mobility shift of ubiquitin chains; format: binding; conditions: for native gel mobility of K48-linked ubiquitin chains: diUb with two fold-molar excess, tetraUb with equivalent amount of compound
T5 construct: a mixture of Ub chains containing 2-7 Ub molecules
Method: as §1, §3

[3] = molecular target: T6, K63-linked ubiquitin chains (Homo sapiens, UniProt P0CG47); assay: Native gel mobility shift of ubiquitin chains; format: binding; conditions: tetraUb, equivalent amount of compound
T6 construct: tetraubiquitin chains wherein the ubiquitins are linked via K29, K48, or K63
Method: as §1, §3

| SMILES | IC50 (26S proteasomes) | inhibition of binding of UbSic1 to Rpn10 (Gst-Rpn10) | inhibition of binding of UbSic1 to Rad23 (Gst-Rad23) | native gel mobility of K29-linked chains [1] | native gel mobility of K48-linked ubiquitin chains [2] | native gel mobility of multiUb chains ([2]; mixture of Ub chains containing 2-7 Ub molecules) | native gel mobility of K63-linked chains [3] |
| --- | --- | --- | --- | --- | --- | --- | --- |
| O=C(Nc1ccc(/C=C/c2ccc(NC(=O)c3cc(S(=O)(=O)O)c4cccnc4c3O)cc2S(=O)(=O)O)c(S(=O)(=O)O)c1)c1cc(S(=O)(=O)O)c2cccnc2c1O [Compound 92] | ~400 nM | abolished binding | abolished binding | little or no effect | efficiently shifted | bound Ub chains | little or no effect |
| O=S(=O)(O)c1ccc2cc3c(cc2c1)NN(c1ccc(/C=C/c2ccc(N4Nc5cc6ccc(S(=O)(=O)O)cc6cc5N4)cc2S(=O)(=O)O)c(S(=O)(=O)O)c1)N3 [Compound 59] | 1000 nM | abrogated binding |  | little or no effect | efficiently shifted |  | little or no effect |
